One may read the EC50 as the concentration at which the effect is half-maximal. A word on the IC50: it is the concentration that inhibits the measured activity by half. As usually defined, the half-life is the time in which the quantity being followed falls by half. In general, bioavailability refers to the share of a dose that reaches the circulation, judged against a reference dose that is usually intravenous. For orientation: Cmax means the maximum level reached in the sampled fluid or tissue.

Active and inactive are the calls of the source. The calls are words filed in the database; no cut-off is given here.

Series [1] addresses T1, Free fatty acid receptor 4 (Homo sapiens, UniProt Q5NUL3).
T1 sequence (Q5NUL3 whole entry): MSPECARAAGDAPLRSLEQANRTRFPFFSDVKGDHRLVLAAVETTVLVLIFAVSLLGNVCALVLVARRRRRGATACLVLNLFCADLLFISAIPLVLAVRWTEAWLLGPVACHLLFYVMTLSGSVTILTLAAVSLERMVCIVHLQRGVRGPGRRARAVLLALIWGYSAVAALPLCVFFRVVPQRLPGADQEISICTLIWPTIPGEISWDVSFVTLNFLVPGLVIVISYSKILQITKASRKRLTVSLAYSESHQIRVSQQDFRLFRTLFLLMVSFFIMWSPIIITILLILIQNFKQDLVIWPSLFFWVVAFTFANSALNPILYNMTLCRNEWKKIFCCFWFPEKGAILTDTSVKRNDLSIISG
Nature of the series: Agonist activity at human GPR120 expressed in CHOK1 cells measured after 60 mins by IP1-HTRF assay. The format is functional, cell-based, CHO-K1.

The target in series [2] is T2, Free fatty acid receptor 4 (Homo sapiens) (UniProt Q5NUL3).
T2 sequence (whole entry): T1 sequence (Q5NUL3 whole entry)
Nature of the series: Agonist activity at human GPR120 expressed in CHOK1 cells measured after 60 mins by IP1-HTRF assay relative to basal level. Type of series: functional, cell-based. Details: concentration or dose not given beside the values. To be noted: CHO-K1. In general terms: In TR-FRET formats the signal depends on donor and acceptor labels being close together.

The target in series [3] is T3, Free fatty acid receptor 4 (Mus musculus, UniProt Q7TMA4).
T3 sequence (Q7TMA4 whole entry): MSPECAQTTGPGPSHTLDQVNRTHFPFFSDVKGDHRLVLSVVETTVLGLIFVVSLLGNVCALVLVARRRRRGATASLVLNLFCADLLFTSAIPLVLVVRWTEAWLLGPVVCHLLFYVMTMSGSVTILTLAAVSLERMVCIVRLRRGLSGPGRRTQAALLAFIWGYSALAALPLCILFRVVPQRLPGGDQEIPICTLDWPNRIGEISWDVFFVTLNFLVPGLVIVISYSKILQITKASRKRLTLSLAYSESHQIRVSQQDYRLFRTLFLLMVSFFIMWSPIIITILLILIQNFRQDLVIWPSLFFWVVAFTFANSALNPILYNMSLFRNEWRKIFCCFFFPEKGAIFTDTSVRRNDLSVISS
Nature of the series: Agonist activity at mouse GPR120 expressed in CHOK1 cells measured after 60 mins by IP1-HTRF assay. The format is functional, cell-based, CHO-K1.

Series [4] addresses T4, Free fatty acid receptor 4 (Mus musculus) (UniProt Q7TMA4).
T4 sequence (whole entry): T3 sequence (Q7TMA4 whole entry)
Nature of the series: Agonist activity at mouse GPR120 expressed in CHOK1 cells measured after 60 mins by IP1-HTRF assay relative to basal level. The format is functional, cell-based. Also noted: concentration or dose not given beside the values. The settings on record: CHO-K1.

In series [5] the target is T5, Free fatty acid receptor 1 (Homo sapiens, UniProt O14842). Nature of the series: Agonist activity at human GPR40 measured after 60 mins by IP1-HTRF assay. Type of series: functional.
T5 sequence (O14842 whole entry): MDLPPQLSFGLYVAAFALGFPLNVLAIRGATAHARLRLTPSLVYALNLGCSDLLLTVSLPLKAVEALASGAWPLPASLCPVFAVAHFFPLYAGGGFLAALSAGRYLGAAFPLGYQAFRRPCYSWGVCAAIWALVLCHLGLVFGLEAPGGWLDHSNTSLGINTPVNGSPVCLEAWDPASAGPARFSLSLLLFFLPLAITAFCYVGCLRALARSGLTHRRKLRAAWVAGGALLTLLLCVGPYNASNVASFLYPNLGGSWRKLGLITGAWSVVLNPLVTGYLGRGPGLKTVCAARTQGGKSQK
The target in series [6] is Voltage-dependent L-type calcium channel subunit alpha-1C (Homo sapiens, UniProt Q13936). Nature of the series: Inhibition of Cav1.2 (unknown origin).
For series [7], the target named is Sodium channel protein type 5 subunit alpha (Homo sapiens, UniProt Q14524). Nature of the series: Inhibition of Nav1.5 (unknown origin).
Sodium channel protein type 5 subunit alpha, sequence (Q14524 whole entry): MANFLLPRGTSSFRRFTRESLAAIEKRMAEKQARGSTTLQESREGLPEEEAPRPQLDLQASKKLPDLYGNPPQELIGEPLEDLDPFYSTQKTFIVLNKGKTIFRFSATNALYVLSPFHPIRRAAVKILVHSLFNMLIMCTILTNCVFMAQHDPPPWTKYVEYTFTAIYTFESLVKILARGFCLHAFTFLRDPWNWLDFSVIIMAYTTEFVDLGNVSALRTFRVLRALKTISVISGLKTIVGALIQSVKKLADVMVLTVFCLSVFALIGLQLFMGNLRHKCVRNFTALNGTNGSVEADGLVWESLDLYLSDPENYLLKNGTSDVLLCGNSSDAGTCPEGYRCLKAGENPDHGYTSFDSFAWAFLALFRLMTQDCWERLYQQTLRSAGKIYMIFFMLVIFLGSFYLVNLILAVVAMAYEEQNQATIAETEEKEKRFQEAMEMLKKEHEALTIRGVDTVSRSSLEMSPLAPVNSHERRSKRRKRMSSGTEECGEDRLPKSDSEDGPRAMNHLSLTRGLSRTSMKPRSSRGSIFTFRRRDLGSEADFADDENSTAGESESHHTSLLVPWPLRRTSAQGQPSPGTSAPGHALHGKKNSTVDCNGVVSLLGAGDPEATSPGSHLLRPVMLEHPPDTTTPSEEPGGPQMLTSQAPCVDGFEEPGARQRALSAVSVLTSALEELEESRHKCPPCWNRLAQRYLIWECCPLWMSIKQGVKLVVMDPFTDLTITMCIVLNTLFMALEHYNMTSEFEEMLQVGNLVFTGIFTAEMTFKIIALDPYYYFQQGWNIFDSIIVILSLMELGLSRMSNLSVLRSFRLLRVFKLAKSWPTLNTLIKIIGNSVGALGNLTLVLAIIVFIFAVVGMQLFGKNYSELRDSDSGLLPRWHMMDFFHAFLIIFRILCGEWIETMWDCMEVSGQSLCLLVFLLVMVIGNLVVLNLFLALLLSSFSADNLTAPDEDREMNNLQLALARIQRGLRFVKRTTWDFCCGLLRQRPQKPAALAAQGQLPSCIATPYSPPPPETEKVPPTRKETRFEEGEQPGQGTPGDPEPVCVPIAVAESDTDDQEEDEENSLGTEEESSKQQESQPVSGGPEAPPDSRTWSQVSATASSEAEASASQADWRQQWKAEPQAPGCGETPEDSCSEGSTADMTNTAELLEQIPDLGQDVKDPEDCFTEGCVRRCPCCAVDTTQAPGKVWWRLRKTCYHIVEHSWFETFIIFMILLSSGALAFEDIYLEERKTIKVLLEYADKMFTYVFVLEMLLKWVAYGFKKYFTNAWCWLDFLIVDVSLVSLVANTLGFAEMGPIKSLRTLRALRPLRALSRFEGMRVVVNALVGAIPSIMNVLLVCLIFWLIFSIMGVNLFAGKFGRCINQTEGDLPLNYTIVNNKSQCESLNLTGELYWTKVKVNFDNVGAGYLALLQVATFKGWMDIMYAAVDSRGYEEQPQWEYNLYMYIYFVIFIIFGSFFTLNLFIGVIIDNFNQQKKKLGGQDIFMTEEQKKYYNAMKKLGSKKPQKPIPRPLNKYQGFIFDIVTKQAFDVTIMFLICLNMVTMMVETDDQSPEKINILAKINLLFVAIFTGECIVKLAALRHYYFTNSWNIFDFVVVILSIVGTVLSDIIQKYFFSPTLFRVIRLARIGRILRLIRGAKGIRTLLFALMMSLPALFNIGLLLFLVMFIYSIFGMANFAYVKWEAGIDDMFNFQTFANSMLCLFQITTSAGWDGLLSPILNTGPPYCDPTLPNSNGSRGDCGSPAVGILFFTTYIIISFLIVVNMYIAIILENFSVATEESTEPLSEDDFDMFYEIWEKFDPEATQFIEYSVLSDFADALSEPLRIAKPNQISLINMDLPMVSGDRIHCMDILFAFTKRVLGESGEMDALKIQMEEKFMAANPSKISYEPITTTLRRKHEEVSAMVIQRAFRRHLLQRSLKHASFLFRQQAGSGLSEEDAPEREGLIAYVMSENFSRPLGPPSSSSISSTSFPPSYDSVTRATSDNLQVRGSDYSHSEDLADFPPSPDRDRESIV
In series [8] the target is Cytochrome P450 3A4 (Homo sapiens, UniProt P08684). Nature of the series: Inhibition of CYP3A4 (unknown origin). The format is ADME.
Cytochrome P450 3A4, sequence (P08684 whole entry): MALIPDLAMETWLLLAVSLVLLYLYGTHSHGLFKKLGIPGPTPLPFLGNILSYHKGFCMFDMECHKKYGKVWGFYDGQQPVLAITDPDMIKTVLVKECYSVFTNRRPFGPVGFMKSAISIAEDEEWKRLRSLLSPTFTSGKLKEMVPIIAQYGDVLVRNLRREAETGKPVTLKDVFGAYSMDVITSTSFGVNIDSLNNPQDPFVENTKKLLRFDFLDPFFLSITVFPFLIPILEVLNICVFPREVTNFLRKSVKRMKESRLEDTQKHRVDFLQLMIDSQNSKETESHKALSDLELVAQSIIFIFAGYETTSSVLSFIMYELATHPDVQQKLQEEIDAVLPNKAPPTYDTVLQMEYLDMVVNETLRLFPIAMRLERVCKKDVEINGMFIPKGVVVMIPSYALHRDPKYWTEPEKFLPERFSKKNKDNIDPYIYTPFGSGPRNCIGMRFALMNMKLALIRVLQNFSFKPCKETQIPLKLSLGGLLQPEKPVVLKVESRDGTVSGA
Series [9] has as its target Cytochrome P450 2D6 (Homo sapiens, UniProt P10635). Nature of the series: Inhibition of CYP2D6 (unknown origin). Type of series: ADME.
For series [10], the target named is Cytochrome P450 2C9 (Homo sapiens, UniProt P11712). In words: Inhibition of CYP2C9 (unknown origin). The format is ADME.
Cytochrome P450 2C9, sequence (P11712 whole entry): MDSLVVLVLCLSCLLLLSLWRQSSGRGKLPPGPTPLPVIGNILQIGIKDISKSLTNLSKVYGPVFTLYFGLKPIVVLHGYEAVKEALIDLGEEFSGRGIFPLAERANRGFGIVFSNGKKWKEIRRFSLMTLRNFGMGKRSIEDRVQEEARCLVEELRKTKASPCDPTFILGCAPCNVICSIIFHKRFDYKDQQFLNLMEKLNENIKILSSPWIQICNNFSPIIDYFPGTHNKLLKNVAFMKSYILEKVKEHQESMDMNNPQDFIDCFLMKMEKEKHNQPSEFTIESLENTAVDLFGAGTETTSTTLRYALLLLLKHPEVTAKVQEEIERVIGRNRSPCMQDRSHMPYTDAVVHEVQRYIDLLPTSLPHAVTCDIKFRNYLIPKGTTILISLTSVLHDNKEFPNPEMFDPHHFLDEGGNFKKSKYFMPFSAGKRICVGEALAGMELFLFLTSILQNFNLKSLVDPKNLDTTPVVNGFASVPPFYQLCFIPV
Series [11] in a line: Clearance in mouse at 2 mg/kg, iv or 10 mg/kg, po. The format is ADME, organism-based. The settings on record: in vivo.
Series [12] can be described thus: Volume of distribution in mouse at 2 mg/kg, iv or 10 mg/kg, po. Type of series: ADME, organism-based. To be noted: in vivo.
Series [13] in a line: Half life in mouse at 2 mg/kg, iv or 10 mg/kg, po. The format is ADME, organism-based. To be noted: in vivo.
Series [14] can be described thus: Oral bioavailability in mouse at 10 mg/kg. The settings on record: in vivo. The format is ADME, organism-based.
The nature of series [15]: Cmax in mouse at 2 mg/kg, iv or 10 mg/kg, po. Type of series: ADME, organism-based. The settings on record: in vivo.
Series [16] is described as follows: Protein binding in mouse plasma. Type of series: ADME, cell-free. To be noted: read-out: PPB (converted).
The target of series [17] is T5, Free fatty acid receptor 1. In words: Agonist activity at human GPR40 measured after 60 mins by IP1-HTRF assay relative to basal level. Also noted: concentration or dose not given beside the values. The format is functional.
Series [18] can be described thus: Antidiabetic activity in wild-type mouse assessed as reduction in glucose excursion at 30 and 100 mg/kg, po by oral glucose tolerance test. Type of series: functional, organism-based.
For series [19], the system named is Mus musculus. Nature of the series: Reduction of glucose excursion in GPR120 knockout mouse at 30 and 100 mg/kg, po by oral glucose tolerance test. Type of series: functional, organism-based.
The nature of series [20]: Drug uptake in GPR120 knockout mouse blood at 30 mg/kg, po. The format is ADME, organism-based. To be noted: in vivo, read-out: Drug uptake.
Series [21] is described as follows: Drug uptake in GPR120 knockout mouse blood at 100 mg/kg, po. Type of series: ADME, organism-based. To be noted: in vivo, read-out: Drug uptake.
A short description of series [22]: Drug uptake in wild-type mouse blood at 30 mg/kg, po. The settings on record: in vivo, read-out: Drug uptake. Type of series: ADME, organism-based.
Series [23] in a line: Drug uptake in wild-type mouse blood at 100 mg/kg, po. To be noted: in vivo, read-out: Drug uptake. Type of series: ADME, organism-based.
For series [24], the system named is Mus musculus. Nature of the series: In vivo agonist activity at GPR120 in wild-type mouse assessed as target engagement at 30 mg/kg, po. The format is functional.
The subject of series [25] is Mus musculus. Nature of the series: In vivo agonist activity at GPR120 in wild-type mouse assessed as target engagement at 100 mg/kg, po. Type of series: functional.
In series [26] the target is T2, Free fatty acid receptor 4 (Homo sapiens). Nature of the series: Agonist activity at human GPR120 expressed in CHO-NFAT cells assessed as increase in calcium efflux at 5 uM by Fluo-4 dye-based FLIPR assay. The format is functional, cell-based.
Series [27] deals with CHO-K1. Nature of the series: Effect on calcium efflux in CHOK1 cells at 5 uM by Fluo-4 dye-based FLIPR assay. Type of series: functional, Cricetulus griseus.
Series [28] deals with T2, Free fatty acid receptor 4 (Homo sapiens). Nature of the series: Agonist activity at GPR120 (unknown origin) at 5 uM by PathHunter cell based assay.
The target in series [29] is Voltage-gated inwardly rectifying potassium channel KCNH2 (Homo sapiens, UniProt Q12809).
Voltage-gated inwardly rectifying potassium channel KCNH2, sequence (Q12809 whole entry): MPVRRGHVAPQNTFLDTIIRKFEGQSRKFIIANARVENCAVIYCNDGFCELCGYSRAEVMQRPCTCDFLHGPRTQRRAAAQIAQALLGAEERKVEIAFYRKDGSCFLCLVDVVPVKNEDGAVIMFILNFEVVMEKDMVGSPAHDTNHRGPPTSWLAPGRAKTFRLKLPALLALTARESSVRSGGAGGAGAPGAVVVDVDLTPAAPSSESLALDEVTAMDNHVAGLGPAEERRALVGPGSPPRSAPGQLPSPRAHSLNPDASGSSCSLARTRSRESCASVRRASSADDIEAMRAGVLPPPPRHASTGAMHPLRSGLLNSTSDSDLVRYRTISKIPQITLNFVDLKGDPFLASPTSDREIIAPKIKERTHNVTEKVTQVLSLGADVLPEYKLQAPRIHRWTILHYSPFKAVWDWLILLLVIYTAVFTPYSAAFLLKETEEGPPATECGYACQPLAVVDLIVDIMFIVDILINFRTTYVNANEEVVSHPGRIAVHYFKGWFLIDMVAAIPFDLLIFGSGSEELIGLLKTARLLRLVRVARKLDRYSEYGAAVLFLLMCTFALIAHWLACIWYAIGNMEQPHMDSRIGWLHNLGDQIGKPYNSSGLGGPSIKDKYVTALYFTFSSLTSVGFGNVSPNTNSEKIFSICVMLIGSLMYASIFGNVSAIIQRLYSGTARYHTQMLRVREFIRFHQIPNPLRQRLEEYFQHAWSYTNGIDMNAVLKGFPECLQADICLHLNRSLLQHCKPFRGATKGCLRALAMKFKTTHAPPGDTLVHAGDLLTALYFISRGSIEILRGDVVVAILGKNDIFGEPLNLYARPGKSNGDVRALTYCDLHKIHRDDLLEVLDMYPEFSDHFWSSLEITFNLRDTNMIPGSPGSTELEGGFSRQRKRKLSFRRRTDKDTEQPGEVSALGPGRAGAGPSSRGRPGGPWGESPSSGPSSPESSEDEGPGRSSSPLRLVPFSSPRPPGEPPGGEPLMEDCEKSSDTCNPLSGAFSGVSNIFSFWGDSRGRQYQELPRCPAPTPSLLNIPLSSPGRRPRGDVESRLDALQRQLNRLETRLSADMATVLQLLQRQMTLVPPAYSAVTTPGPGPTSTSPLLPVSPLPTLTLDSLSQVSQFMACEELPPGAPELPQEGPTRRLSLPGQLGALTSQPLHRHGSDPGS

Cytochrome P450 2D6, sequence (P10635 whole entry): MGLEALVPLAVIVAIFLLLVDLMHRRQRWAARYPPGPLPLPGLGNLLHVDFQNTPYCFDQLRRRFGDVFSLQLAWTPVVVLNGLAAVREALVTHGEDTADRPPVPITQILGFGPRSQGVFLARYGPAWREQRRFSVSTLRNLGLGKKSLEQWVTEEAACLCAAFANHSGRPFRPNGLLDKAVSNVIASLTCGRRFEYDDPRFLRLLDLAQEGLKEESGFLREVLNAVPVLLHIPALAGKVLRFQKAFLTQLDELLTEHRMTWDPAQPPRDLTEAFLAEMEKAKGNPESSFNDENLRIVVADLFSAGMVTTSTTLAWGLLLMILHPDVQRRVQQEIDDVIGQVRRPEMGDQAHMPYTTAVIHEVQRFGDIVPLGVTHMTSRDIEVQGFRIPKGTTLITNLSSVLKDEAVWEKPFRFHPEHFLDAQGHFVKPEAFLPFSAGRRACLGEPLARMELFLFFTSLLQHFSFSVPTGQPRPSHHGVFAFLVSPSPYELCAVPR

Take `Cc1cc(-c2cc(OC(F)(F)F)ccc2Cl)cc(C)c1OCCCC(=O)O`: the results for the EC50 in [1], in series [3] and in series [5] were 94 nM, 16 nM and greater than 9950 nM, respectively. Besides, the Activity was determined as 61% in series [2] and 73% in series [4]. For the same compound, the IC50 in [6] is 12800 nM; in series [7], 9130 nM; in series [8], 3280 nM; in series [9], greater than 50000 nM; in series [10], greater than 50000 nM. Also, the clearance in series [11] was 4.9 mL/min/kg. This compound had a Vd in series [12] of 0.95 L/kg. The half-life in series [13] was 5.5 h. Moreover, in [14], the bioavailability is 41%. In [15], this compound came in with a Cmax of 6.1 µM. For the same compound, in series [16], the fraction unbound was 0.002.

For the compound `O=C(O)CCc1cc2cc(-c3cc(OC(F)(F)F)ccc3F)ccc2o1`, the EC50 in series [1] was 63 nM; in series [3], 43 nM; in series [5], 1830 nM. The Activity in series [2] is 73%; in series [4] it was 75%; in series [17], 38%; in series [24], 40%; in series [25], 68%. Besides, the IC50 in series [6] was 15100 nM; in [7] it was greater than 30000 nM; in series [8] it was greater than 50000 nM; in series [9], greater than 50000 nM; in series [10], 38300 nM. The clearance in series [11] is 20 mL/min/kg. The Vd in [12] worked out at 3 L/kg. In addition, in series [13], the half-life was 1.6 h. Besides, the bioavailability in series [14] is 100%. For the same compound, the highest concentration (Cmax) in [15] came to 8.17 µM. Besides, the fraction unbound in series [16] was 0.002. Besides, the outcome in series [18] and in [19] was Active. Besides, the concentration was 24.8 µM in [20], 23 µM in series [21], 33.4 µM in [22] and 45.1 µM in [23].

With `O=C(O)CCCOc1ccc(-c2noc3ccccc23)c(Cl)c1Cl`, the Activity was greater than 11% in series [26], less than 10% in series [27], 24% in series [2] and 29% in series [4]. The result in series [28] was Active. For the same compound, the values for the EC50 in series [1], in series [3] and in series [5] were 474 nM, 487 nM and greater than 9950 nM, respectively. Also, the clearance in series [11] came to 24 mL/min/kg. The compound also yielded a Vd in series [12] of 5.6 L/kg. In addition, in series [13], the half-life is 3.3 h. For the same compound, in [14], the bioavailability amounted to 97%. The compound also showed a peak concentration (Cmax) in series [15] of 4.64 µM. Moreover, in [16], the fraction unbound is 0.042.

For the compound `O=C(O)CCCOc1ccc(-c2cc(OC(F)(F)F)ccc2F)cc1`, the EC50 in series [1] amounted to 946 nM; in [3], 432 nM; in series [5], 4220 nM. Also, the Activity came to 16% in [2], 34% in [4] and 91% in [17].

On to `CCOc1ccc(Cl)c(-c2ccc(OCCCC(=O)O)cc2)c1`, for which the 50% effective concentration (EC50) in series [1] is 121 nM; in [3], 32 nM; in series [5] it was 1130 nM. In addition, the Activity is 66% in series [2], 65% in [4] and 30% in series [17].

With `O=C(O)CCCOc1ccc(-c2cc(OC(F)(F)F)ccc2Cl)cc1`, the EC50 in series [1] came to 57 nM; in series [3], 9 nM; in [5], 1040 nM. The Activity in series [2] worked out at 71%; in series [4], 64%; in [17] it was 40%. Besides, the IC50 in [6] is greater than 30000 nM; in series [7], 17400 nM; in series [8], greater than 50000 nM; in series [9], greater than 50000 nM; in series [10], 33000 nM; in series [29], greater than 60000 nM. In addition, the clearance in [11] was 17 mL/min/kg. The same compound returned a Vd in [12] of 1.86 L/kg. In [13], this compound had a half-life of 1.3 h. The compound further displayed a bioavailability in series [14] of 45%. Besides, the Cmax in series [15] was 2.38 µM. Further, the fraction unbound in series [16] is 0.049.

These data come from ChEMBL document CHEMBL3867472, “Discovery of benzofuran propanoic acid GPR120 agonists: From uHTS hit to mechanism-based pharmacodynamic effects” (Bioorg Med Chem Lett, 2016).
